Laboratory results: patent US10273251B2, “Composition, cured film, near infrared ray absorption filter, solid-state imaging device, infrared sensor, and compound” (FUJIFILM Corporation, priority 2014, dated 2019)

What was measured:
Type in all cases: physicochemical
[1] = Evaluation of maximum absorption wavelength, half-width and absorbance ratio (liquid absorption spectrum); conditions: 2.5×10^−6 mol/L, optical path length 10 mm
[2] = Heat resistance of near infrared ray absorption filter (ΔEab before/after heating); conditions: filter 1.0 μm, 7.5 mass % compound; 260° C. for 30 minutes on hot plate; ΔEab class
Procedure: (§1) Compositions below were mixed so as to prepare the composition. A solid content of the composition is 31 mass % and a content of the near infrared ray absorption substance with respect to the total solid content of the composition was 7.5 mass %.
(§2) Glass substrates (1737 manufactured by Corning Incorporated) were coated with respective compositions by using a spin coater such that film thicknesses after drying become 1.0 μm, and a heating treatment (prebaking) was performed for 120 seconds by using a hot plate of 100° C.
(§3) Subsequently, beta exposure was performed by 500 mJ/cm^2 by using an i-ray stepper exposure device FPA-3000i5+ (manufactured by Canon Inc.). Subsequently, puddle development was performed at 23° C. for 60 seconds by using CD-2060 (manufactured by Fujifilm Electronic Materials), a rinse treatment was performed with pure water on a glass substrate on which a beta coloration layer was formed, and spray drying was performed.
(§4) The heating treatment (post baking) was performed for 300 seconds by using a hot plate of 200° C., so as to obtain a near infrared ray absorption filter.
After the near infrared ray absorption filter was heated to 260° C. for 30 minutes by a hot plate, the ΔEab value of a color difference before and after heat resistance test was measured using a color meter MCPD-1000 (manufactured by Otsuka Electronics Co., Ltd.), so as to evaluate a criterion below. A smaller ΔEab value indicates more satisfactory heat resistance.

[3] = Solubility of the compound to propylene glycol monomethyl ether acetate; conditions: visually observed
Excerpt: Solubility of the compound to propylene glycol monomethyl ether acetate was visually observed.

[4] = Evaluation of maximum absorption wavelength, half-width and absorbance ratio (liquid absorption spectrum); conditions: 2.5×10^−6 mol/L, optical path length 10 mm; remark: listed apart in the source
Procedure: —Evaluation of Maximum Absorption Wavelength, Half-Width, and Absorbance Ratio—Respective compounds were dissolved in measuring solvents (concentration: 2.5×10^−6 mol/L) described in the table below so as to measure an absorption spectrum (Optical path length: 10 mm).
Maximum absorption wavelengths (λmax) of absorption spectrums, half-widths of the maximum absorption wavelengths, and absorbance ratios (550 nm/λmax) which are values obtained by dividing absorbance at a wavelength of […] by absorbance at the maximum absorption wavelength with respect to respective compounds are presented in Table 1 below. FIG. 3 illustrates an absorption spectrum of the compound D-1 in chloroform.

[5] = Light fastness of near infrared ray absorption filter (ΔEab before/after xenon lamp); conditions: filter 1.0 μm, 7.5 mass % compound; xenon lamp 50,000 lux for 20 hours; ΔEab class
Procedure: as §1, §2, §3, §4
After the near infrared ray absorption filter was irradiated with a xenon lamp was applied by 50,000 lux for 20 hours (corresponding to 1,000,000 lux·h), an ΔEab value of a color difference before and after a light-fast test was measured. A smaller ΔEab value indicates more satisfactory light fastness.
The ΔEab value is a value obtained from a color difference equation below according to a CIE 1976 (L*, a*, b*) space color system (Handbook of Color Science, New Edition, edited by the Color Science Association of Japan, (1985), p. 266). ΔEab={(ΔL*)^2[…](Δa*)^2+(Δb*)^2}^1/2

[6] = measuring solvent ethyl acetate
[7] = measuring solvent tetrahydrofuran

CCCCCCCCC(CCCCCC)COc1cccc(-c2c3/c(=C(\C#N)c4cnc5cc(Cl)c(Cl)cc5n4)n(B(c4ccccc4)c4ccccc4)c(-c4cccc(OCC(CCCCCC)CCCCCCCC)c4)c3/c(=C(\C#N)c3cnc4cc(Cl)c(Cl)cc4n3)n2B(c2ccccc2)c2ccccc2)c1 [Compound D-1]
Absorbance ratio (550 nm/λmax) ([1]; measuring solvent chloroform): 0.011
Absorbance ratio (550 nm/λmax) [1, 6]: 0.011
Absorbance ratio (550 nm/λmax) [1, 7]: 0.01
Heat resistance [2]: 5 (ΔEab value<3)
Solubility [3]: A (Solubility 2% or greater)
Half-width ([4]; measuring solvent chloroform): 29 nm
Maximum absorption wavelength ([4]; measuring solvent chloroform): 884 nm
Half-width [4, 6]: 30 nm
Maximum absorption wavelength [4, 6]: 880 nm
Half-width [4, 7]: 29 nm
Maximum absorption wavelength [4, 7]: 884 nm
Light fastness [5]: 5 (ΔEab value<3)

COCCOCCOc1cccc(-c2c3/c(=C(\C#N)c4cnc5cc(Cl)c(Cl)cc5n4)n(B(c4ccccc4)c4ccccc4)c(-c4cccc(OCCOCCOC)c4)c3/c(=C(\C#N)c3cnc4cc(Cl)c(Cl)cc4n3)n2B(c2ccccc2)c2ccccc2)c1 [Compound D-4]
Absorbance ratio (550 nm/λmax) ([1]; measuring solvent chloroform): 0.012
Heat resistance [2]: 4 (3≤ΔEab value<5)
Solubility [3]: B (Solubility 0.5% or greater and less than 2%)
Half-width ([4]; measuring solvent chloroform): 29 nm
Maximum absorption wavelength ([4]; measuring solvent chloroform): 883 nm
Light fastness [5]: 5 (ΔEab value<3)

CCCCCCCC/C=C\CCCCCCCCOc1cccc(-c2c3/c(=C(\C#N)c4cnc5cc(Cl)c(Cl)cc5n4)n(B(c4ccccc4)c4ccccc4)c(-c4cccc(OCCCCCCCC/C=C\CCCCCCCC)c4)c3/c(=C(\C#N)c3cnc4cc(Cl)c(Cl)cc4n3)n2B(c2ccccc2)c2ccccc2)c1 [Compound D-5]
Absorbance ratio (550 nm/λmax) ([1]; measuring solvent chloroform): 0.01
Heat resistance [2]: 5 (ΔEab value<3)
Solubility [3]: B (Solubility 0.5% or greater and less than 2%)
Half-width ([4]; measuring solvent chloroform): 29 nm
Maximum absorption wavelength ([4]; measuring solvent chloroform): 884 nm
Light fastness [5]: 5 (ΔEab value<3)

Cc1cc2ncc(/C(C#N)=c3/c4c(-c5cccc(OCC(CCC(C)CC(C)(C)C)C(C)CC(C)(C)C)c5)n(B(c5ccccc5)c5ccccc5)/c(=C(/C#N)c5cnc6cc(C)c(C)cc6n5)c4c(-c4cccc(OCC(CCC(C)CC(C)(C)C)C(C)CC(C)(C)C)c4)n3B(c3ccccc3)c3ccccc3)nc2cc1C [Compound D-6]
Absorbance ratio (550 nm/λmax) ([1]; measuring solvent chloroform): 0.01
Heat resistance [2]: 5 (ΔEab value<3)
Solubility [3]: A (Solubility 2% or greater)
Half-width ([4]; measuring solvent chloroform): 32 nm
Maximum absorption wavelength ([4]; measuring solvent chloroform): 872 nm
Light fastness [5]: 5 (ΔEab value<3)

CCC(C)COc1cccc(-c2c3/c(=C(\C#N)c4cnc5ccccc5n4)n(B(c4ccccc4)c4ccccc4)c(-c4cccc(OCC(C)CC)c4)c3/c(=C(\C#N)c3cnc4ccccc4n3)n2B(c2ccccc2)c2ccccc2)c1 [Compound D-7]
Absorbance ratio (550 nm/λmax) ([1]; measuring solvent chloroform): 0.013
Heat resistance [2]: 5 (ΔEab value<3)
Solubility [3]: A (Solubility 2% or greater)
Half-width ([4]; measuring solvent chloroform): 29 nm
Maximum absorption wavelength ([4]; measuring solvent chloroform): 863 nm
Light fastness [5]: 5 (ΔEab value<3)

CCCCCCCCC(CCCCCCCC)COc1cccc(-c2c3/c(=C(\C#N)c4cnc5cc(C)ccc5n4)n(B(c4ccccc4)c4ccccc4)c(-c4cccc(OCC(CCCCCCCC)CCCCCCCC)c4)c3/c(=C(\C#N)c3cnc4cc(C)ccc4n3)n2B(c2ccccc2)c2ccccc2)c1 [Compound D-8]
Absorbance ratio (550 nm/λmax) ([1]; measuring solvent chloroform): 0.01
Heat resistance [2]: 5 (ΔEab value<3)
Solubility [3]: A (Solubility 2% or greater)
Half-width ([4]; measuring solvent chloroform): 31 nm
Maximum absorption wavelength ([4]; measuring solvent chloroform): 866 nm
Light fastness [5]: 5 (ΔEab value<3)

CCCCC(CC)COc1cccc(-c2c3/c(=C(\C#N)c4ccc5ccccc5n4)n(B(c4ccccc4)c4ccccc4)c(-c4cccc(OCC(CC)CCCC)c4)c3/c(=C(\C#N)c3ccc4ccccc4n3)n2B(c2ccccc2)c2ccccc2)c1 [Compound D-10]
Absorbance ratio (550 nm/λmax) ([1]; measuring solvent chloroform): 0.01
Heat resistance [2]: 5 (ΔEab value<3)
Solubility [3]: A (Solubility 2% or greater)
Half-width ([4]; measuring solvent chloroform): 30 nm
Maximum absorption wavelength ([4]; measuring solvent chloroform): 814 nm
Light fastness [5]: 5 (ΔEab value<3)

CCCCCCCCCCCCCCCCCCOc1cccc(-c2c3/c(=C(\C#N)c4nc5ccccc5s4)n(B(c4ccccc4)c4ccccc4)c(-c4cccc(OCCCCCCCCCCCCCCCCCC)c4)c3/c(=C(\C#N)c3nc4ccccc4s3)n2B(c2ccccc2)c2ccccc2)c1 [Compound D-11]
Absorbance ratio (550 nm/λmax) ([1]; measuring solvent chloroform): 0.009
Heat resistance [2]: 5 (ΔEab value<3)
Solubility [3]: B (Solubility 0.5% or greater and less than 2%)
Half-width ([4]; measuring solvent chloroform): 30 nm
Maximum absorption wavelength ([4]; measuring solvent chloroform): 779 nm
Light fastness [5]: 5 (ΔEab value<3)

CC(CCC(COc1cccc(-c2c3/c(=C(\C#N)c4cnc5ccccc5n4)n(B(c4ccccc4)c4ccccc4)c(-c4cccc(OCC(CCC(C)CC(C)(C)C)C(C)CC(C)(C)C)c4)c3/c(=C(\C#N)c3cnc4ccccc4n3)n2B(c2ccccc2)c2ccccc2)c1)C(C)CC(C)(C)C)CC(C)(C)C [Compound D-28]
Absorbance ratio (550 nm/λmax) ([1]; measuring solvent chloroform): 0.006
Heat resistance [2]: 5 (ΔEab value<3)
Solubility [3]: A (Solubility 2% or greater)
Half-width ([4]; measuring solvent chloroform): 29 nm
Maximum absorption wavelength ([4]; measuring solvent chloroform): 863 nm
Light fastness [5]: 5 (ΔEab value<3)

CCCCCCCCCCC(CCCCCCCC)COc1cccc(-c2c3/c(=C(\C#N)c4cnc5ccccc5n4)n(B(c4ccccc4)c4ccccc4)c(-c4cccc(OCC(CCCCCCCC)CCCCCCCCCC)c4)c3/c(=C(\C#N)c3cnc4ccccc4n3)n2B(c2ccccc2)c2ccccc2)c1 [Compound D-29]
Absorbance ratio (550 nm/λmax) ([1]; measuring solvent chloroform): 0.006
Heat resistance [2]: 5 (ΔEab value<3)
Solubility [3]: A (Solubility 2% or greater)
Half-width ([4]; measuring solvent chloroform): 28 nm
Maximum absorption wavelength ([4]; measuring solvent chloroform): 862 nm
Light fastness [5]: 5 (ΔEab value<3)

CCCCCCCCCCC(CCCCCCCC)COc1cccc(-c2c3/c(=C(\C#N)c4cnc5cc(Cl)c(Cl)cc5n4)n(B(c4ccccc4)c4ccccc4)c(-c4cccc(OCC(CCCCCCCC)CCCCCCCCCC)c4)c3/c(=C(\C#N)c3cnc4cc(Cl)c(Cl)cc4n3)n2B(c2ccccc2)c2ccccc2)c1 [Compound D-31]
Absorbance ratio (550 nm/λmax) ([1]; measuring solvent chloroform): 0.01
Heat resistance [2]: 5 (ΔEab value<3)
Solubility [3]: A (Solubility 2% or greater)
Half-width ([4]; measuring solvent chloroform): 28 nm
Maximum absorption wavelength ([4]; measuring solvent chloroform): 884 nm
Light fastness [5]: 5 (ΔEab value<3)

CC(CCC(COc1cccc(-c2c3/c(=C(\C#N)c4cnc5cc(Cl)c(Cl)cc5n4)n(B(c4ccccc4)c4ccccc4)c(-c4cccc(OCC(CCC(C)CC(C)(C)C)C(C)CC(C)(C)C)c4)c3/c(=C(\C#N)c3cnc4cc(Cl)c(Cl)cc4n3)n2B(c2ccccc2)c2ccccc2)c1)C(C)CC(C)(C)C)CC(C)(C)C [Compound D-32]
Absorbance ratio (550 nm/λmax) ([1]; measuring solvent chloroform): 0.01
Heat resistance [2]: 5 (ΔEab value<3)
Solubility [3]: A (Solubility 2% or greater)
Half-width ([4]; measuring solvent chloroform): 28 nm
Maximum absorption wavelength ([4]; measuring solvent chloroform): 884 nm
Light fastness [5]: 5 (ΔEab value<3)

COc1ccc2oc(/C(C#N)=c3/c4c(-c5cccc(OCC(CCC(C)CC(C)(C)C)C(C)CC(C)(C)C)c5)n(B(c5ccccc5)c5ccccc5)/c(=C(/C#N)c5nc6cc(C)ccc6o5)c4c(-c4cccc(OCC(CCC(C)CC(C)(C)C)C(C)CC(C)(C)C)c4)n3B(c3ccccc3)c3ccccc3)nc2c1 [Compound D-43]
Absorbance ratio (550 nm/λmax) ([1]; measuring solvent chloroform): 0.003
Heat resistance [2]: 5 (ΔEab value<3)
Solubility [3]: A (Solubility 2% or greater)
Half-width ([4]; measuring solvent chloroform): 30 nm
Maximum absorption wavelength ([4]; measuring solvent chloroform): 748 nm
Light fastness [5]: 5 (ΔEab value<3)

CCCCCCCCC(CCCCCC)COc1ccc(-c2c3/c(=C(\C#N)c4cnc5cc(Cl)c(Cl)cc5n4)n(B(c4ccccc4)c4ccccc4)c(-c4ccc(OCC(CCCCCC)CCCCCCCC)cc4)c3/c(=C(\C#N)c3cnc4cc(Cl)c(Cl)cc4n3)n2B(c2ccccc2)c2ccccc2)cc1 (stereo not drawn) [Compound E-1, reference compound]
Absorbance ratio (550 nm/λmax) ([1]; measuring solvent chloroform): 0.019
Heat resistance [2]: 5 (ΔEab value<3)
Solubility [3]: C (Solubility less than 0.5%)
Half-width ([4]; measuring solvent chloroform): 31 nm
Maximum absorption wavelength ([4]; measuring solvent chloroform): 884 nm
Light fastness [5]: 5 (ΔEab value<3)
